Laboratory results: patent US20250281439A1, “USE OF L-ASPARTIC ACID BETA-HYDROXAMATE (L-ABH) IN PREPARATION OF DRUG FOR DIABETIC RETINOPATHY (DR) OR RETINOPATHY OF PREMATURITY (ROP)” (Wenzhou Medical University, priority 2024, published 2025)
“Also recorded” adds a separate entry of the source.

Key:
[1] = system: db/db mice; experiment: Visual electrophysiological examination (dark and light adaptation) after 18 weeks of gavage; format: in vivo; conditions: gavage 20 mg/kg/day, 1 time per day, vs db/db+water
Protocol: (§1) The 3-month-old db/db mice were randomly divided into two groups and subjected to intragastric gavage experiments: • group 1: gavage of water (denoted as db/db+water, 0.06 mL/10 g, 7 mice in total); • group 2: gavage of the L-ABH (denoted as db/db+L-ABH, 20 mg/kg/day, 10 mice in total).
(§2) Each group was gavaged 1 time per day according to the dosage for 18 weeks.
(§3) The 3-month-old wild-type mice were gavaged in the same manner as the group 1 (denoted as WT+water, 0.06 mL/10 g, 6 mice in total).
(1) After the gavage, visual electrophysiological examinations were conducted on the mice in each group.
In FIGS. 2A-2H, (dark adapted 0.01, dark adapted 3.0, dark adapted 10.0 and dark adapted 3.0 oscillatory potentials) show 4 tests under visual electrophysiological dark adaptation. […] In FIGS. 3A-3D, (light adapted 3.0, and light adapted 30 Hz flicker) show 2 tests after visual electrophysiological light adaptation.

[2] = Toxicity and tolerability of L-ABH on long-term oral administration; format: in vivo; conditions: no test described
Source text: L-aspartic acid β-hydroxamate (L-ABH) is a reversible serine racemase (SR) inhibitor. […] However, there is no clear report on whether the L-ABH could be used for retinal neuroprotection as well as prevention and treatment of retinopathy.

[3] = oral 20 mg/kg/d for three months (patent ZL 202110755406.0); 20 mg/kg/day; cited from earlier work
[4] = system: db/db mice; conditions: previous studies, cited from earlier work
[5] = system: neonatal mice, hypoxia-induced retinopathy model; experiment: OIR experiment, hypoxia-induced retinopathy model (isolectin staining, area of retinal angiogenesis); format: in vivo; conditions: intraperitoneal 7 mg/kg/day, 1 time a day from day 12 after birth, 5 days, vs OIR+Saline
Protocol: In this example, the effect of L-ABH was verified in a hypoxia-induced model. The hypoxia-induced retinopathy model could be used as a model of ROP and a late-stage model of DR. OIR experiment: neonatal mice on the 7th day after birth and mother mice were randomly divided into 3 groups. Two groups of the neonatal mice and the mother mice were placed in an OIR oxygen chamber. The neonatal mice in group 1 were intraperitoneally injected with L-ABH (7 mg/kg/day) 1 time a day from the 12th day after birth for 5 consecutive days, recorded as OIR+L-ABH (ip), with a total of 5 mice. While the neonatal mice in group 2 were intraperitoneally injected with an equal amount of saline every day from the 12th day, recorded as OIR+Saline, with a total of 5 mice. After 5 day of hyperoxia, hypoxia-induced models were established in the group 1 and the group 2. The mice in group 3 were fed normally and intraperitoneally injected with an equal volume of saline every day, recorded as WT, with a total of 5 mice. After 5 day of hyperoxia, the neonatal and the mother mice were taken out from the oxygen chamber. The neonatal and the mother mice in the 3 groups were raised normally for 5 days, then the neonatal mice were sacrificed, subjected to stretched preparation and stained with isolectin, and then analyzed for the area of retinal angiogenesis. […]

[6] = system: db/db mice; experiment: OCT experiment (circular and linear scan; RNFL and total retinal thickness); format: in vivo; conditions: gavage 20 mg/kg/day, 18 weeks, vs db/db+water
Protocol: as §1, §2, §3
(2) After the gavage, an OCT experiment was conducted.
After the mice were anesthetized, tropicamide eye drops were used to dilate pupils, and after the mice entered deep anesthesia, ofloxacin was used to cover an ocular surface. The mice were placed on a mouse holder, their body position and the position knob were adjusted such that the lens was directly facing a center of mouse pupil. The position was fine-tuned from far to near such that an optic disc was located in a center of fundus image, and a focus was adjusted to make the image clear. A linear scan was conducted, where a linear scan position was moved to the vicinity of the optic disc, parameters and position were fine-tuned such that an OCT image passed through the optic disc and the optic disc was located in the middle, thus obtaining a cross-section of the retina from a temporal side to a nasal side. […]

[7] = system: db/db mice; experiment: Retinal digest preparation, PAS staining (endothelial cells, pericytes, acellular capillaries); format: in vivo; conditions: gavage 20 mg/kg/day, 18 weeks, vs db/db+water
Protocol: as §1, §2, §3
(4) After the gavage, the retinal digest preparation stretched preparation-PAS staining experiment was conducted.
After the mice were euthanized, eyeballs of the mice were removed and fixated with 4% PFA for 48 h, the retinas of the mice were separated and rinsed in ddH2O on a shaker at room temperature overnight, a fixative was removed, and the retinas were cut in half. The retinas were placed in 3% trypsin (prepared in 0.2 M Tris buffer, pH=7.4) and digested at 37° C. for 1 h. […] The nuclei were washed with running water, dehydrated routinely, transparentized with xylene, sealed with neutral gum, and then 6 to 8 fields of view were randomly selected for counting and observation under a microscope, and the number of pericytes and endothelial cells was calculated.

[8] = system: db/db mice; experiment: Retinal Brn3a immunofluorescence (RGC counting); format: in vivo; conditions: gavage 20 mg/kg/day, 18 weeks, vs db/db+water
Protocol: as §1, §2, §3
(3) After the gavage, retinal Brn3a immunofluorescence experiment was conducted.
After the mice were euthanized, periocular tissue of the mice was cut open, their eyeball of the mice was cut out and placed in a 5 mL centrifuge tube containing 4% PFA to allow fixation for 24 h, and the retinas were separated and cut into 4 petal shapes. The retinas were washed with PBS, permeabilized for 45 min, and blocked for 2 h. After removing a blocking solution, a Brn3a antibody was diluted (1:100) with PBS buffer containing 1% BSA, incubated overnight at 4° C., and then washed with the PBS. […] LSM 880 confocal laser microscope was used to take a full retinal mosaic, and then fluorescent images of the inner, middle, and outer 3 areas were intercepted on the 4 petals of the retina, that is, 12 areas of one retina were intercepted to allow fluorescence counting statistics. […]

With `N[C@@H](CC(=O)NO)C(=O)O` [L-ABH, L-aspartic acid β-hydroxamate] the “functions of bipolar cells and amacrine cells in the retina (a-, b-wave, oscillatory potential, N1-P1 amplitudes)” value [1] was “significantly improve the functions of bipolar cells and amacrine cells”, the “nausea, vomiting, diarrhea, lactic acidosis” value ([2]; long-term use) was “does not cause nausea, vomiting, diarrhea, or lactic acidosis” and the “irritating effect on gastrointestinal tract” value [2] was “no irritating effect on gastrointestinal tract”. For the same compound, the hepatotoxicity and nephrotoxicity [3] was “not hepatotoxic or nephrotoxic; also recorded: without hepatotoxicity and nephrotoxicity”, the random blood glucose ([4]; animal model of type II diabetes) was “reduce random blood glucose” and the “oral glucose tolerance test (OGTT)” value [4] was “significantly improve oral glucose tolerance test (OGTT)”. For the same compound, the “sensitivity of insulin tolerance test (ITT)” value [4] was “increase sensitivity of insulin tolerance test (ITT)”, the “hypoxia-induced retinal angiogenesis (neovascular area, avascular area)” value [5] was “significantly reduce the hypoxia-induced retinal angiogenesis” and the “degeneration of nerve fiber layer and medial nasal retina (RNFL thickness, total retinal thickness by OCT)” value [6] was “protect the degeneration of a nerve fiber layer and a medial nasal retina”. The “microvascular lesions (ratio of endothelial cells to pericytes, amount of acellular capillaries)” value [7] was “significantly reduce the microvascular lesions” and the “RGCs (Brn3a fluorescence counting) in inner, middle and outer retina” value [8] was “significantly protect the RGCs in the middle and outer retina”.
